This is an account of results in patent publication US9499490B2, “Fluorophenyl pyrazol compounds” (Eli Lilly and Company, priority 2013, dated 2016).

In assay [1] the target is T1, human MetAP2 (Homo sapiens, UniProt P50579).
T1 construct: Full length MetAP2 (human and mouse) and MetAP1 (human) proteins are generated from Sf9 cells; made in house; host or cells: Sf9 insect cells
In words: Enzymatic activity assay of human MetAP2 (LC/MS detection of product peptide). The format is biochemical. To be noted: full length human MetAP2, substrate 150 μM, 40 min; read-out: IC50 value for hMetAP2. As to the method:
(§1) Full length MetAP2 (human and mouse) and MetAP1 (human) proteins are generated from Sf9 cells using procedure similar to that described in Biochemistry 2003, 42, 5035-5042. MetAP2 and MetAP1 are purified in the presence of 5 mM MnCl2 and 2 mM CoCl2 respectively, and stored at −78° C. before use.
(§2) Compound inhibition of the catalytic activity of human and mouse MetAP2 in the present invention is monitored by the formation of the product peptide (Gly-Lys-Val-Lys-Val-Gly-Val-Asn-Gly) from the substrate peptide (Met-Gly-Lys-Val-Lys-Val-Gly-Val-Asn-Gly) via LC/MS detection. The reaction is typically conducted by incubating the enzyme, testing compound and substrate (150 μM) in a 100 μl assay buffer (50 mM HEPES, 100 mM NaCl, 50 mg/mL BSA, 0.17 mM Triton X-100 at pH 7.5) for 40 min. After the reaction is stopped by the addition of 200 μl acetonitrile, the levels of product and remaining substrate are quantified on a mass spectrometer. The activity of human MetAP1 is monitored by the formation of the fluorescent product rhodmine-methionine from the substrate methionine-rhodamine-methionine on a spectrophotometer with the excitation light at 460 nm and emission light at 535 nm. The reaction is typically conducted by incubating the enzyme, testing compound and substrate (50 μM) in a 100 μl assay buffer (50 mM HEPES, 100 mM NaCl, 0.1% BSA, 0.05% Tween-20, 50 μM CoCl2) for 60 min. […]

The target in assay [2] is T2, mouse MetAP2 (Mus musculus, UniProt O08663).
T2 construct: Full length MetAP2 (human and mouse) and MetAP1 (human) proteins are generated from Sf9 cells; made in house; host or cells: Sf9 insect cells
T2 sequence (O08663 whole entry): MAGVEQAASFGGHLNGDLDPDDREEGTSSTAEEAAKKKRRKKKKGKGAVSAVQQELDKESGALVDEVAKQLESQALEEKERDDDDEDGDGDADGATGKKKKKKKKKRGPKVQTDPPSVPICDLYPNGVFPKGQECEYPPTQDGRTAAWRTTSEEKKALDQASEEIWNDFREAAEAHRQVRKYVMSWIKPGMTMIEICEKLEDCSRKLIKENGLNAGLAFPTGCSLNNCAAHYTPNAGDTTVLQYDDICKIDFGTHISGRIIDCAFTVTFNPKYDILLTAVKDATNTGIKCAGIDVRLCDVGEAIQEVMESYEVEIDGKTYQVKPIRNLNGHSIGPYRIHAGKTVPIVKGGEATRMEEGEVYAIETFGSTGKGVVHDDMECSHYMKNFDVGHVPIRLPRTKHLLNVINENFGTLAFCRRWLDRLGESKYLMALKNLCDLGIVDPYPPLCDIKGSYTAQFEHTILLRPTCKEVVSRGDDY
In words: Enzymatic activity assay of mouse MetAP2 (LC/MS detection of product peptide). To be noted: full length mouse MetAP2, substrate 150 μM, 40 min; read-out: IC50 value for mMetAP2. The format is biochemical. Here is the method:
as §1, §2

Assay [3] concerns the target T3, human MetAP1 (Homo sapiens, UniProt P53582).
T3 construct: Full length MetAP2 (human and mouse) and MetAP1 (human) proteins are generated from Sf9 cells; made in house; host or cells: Sf9 insect cells
In words: Enzymatic activity assay of human MetAP1 (fluorescent rhodamine substrate). The format is biochemical. To be noted: full length human MetAP1, substrate 50 μM, 60 min. Here is the method:
as §1, §2

Assay [4] concerns obese DIO mice. The experiment in a line: Therapeutic weight loss effect in high fat diet induced obese (DIO) mice. In kind it is in vivo, mouse. As to conditions: oral 30 mg/kg twice a day. Here is the method:
To determine the therapeutic weight loss effects and improvement of metabolic parameters, compounds from the invention are tested in the high fat diet (HFD) feeding induced obese mouse model (DIO mice). In this model, C57/B16J male mouse is fed with the 60% HFD (D12492i, Research Diets) for 16˜28 weeks to establish obesity with body weight reaching around 50 g. The mice will gradually increase the body weight to about 50 g and maintain that weight in this obese state. Test compound (via the vehicle of 0.5% HEC plus 0.25% Tween-80 at 5 mL/kg) is administered orally to the obese DIO mice once or twice daily throughout the study duration. The dose-dependent weight loss of obese DIO mice for Example 1 of the oral treatment at 30 mg/kg twice a day is about 6%, 10%, and 14% weight loss compared to the vehicle group at day 7, day 14, and day 21 respectively. The data support that the compound of Example 1 is associated with desired weight loss and offers therapeutic weight loss effect.

T1 sequence (P50579 whole entry): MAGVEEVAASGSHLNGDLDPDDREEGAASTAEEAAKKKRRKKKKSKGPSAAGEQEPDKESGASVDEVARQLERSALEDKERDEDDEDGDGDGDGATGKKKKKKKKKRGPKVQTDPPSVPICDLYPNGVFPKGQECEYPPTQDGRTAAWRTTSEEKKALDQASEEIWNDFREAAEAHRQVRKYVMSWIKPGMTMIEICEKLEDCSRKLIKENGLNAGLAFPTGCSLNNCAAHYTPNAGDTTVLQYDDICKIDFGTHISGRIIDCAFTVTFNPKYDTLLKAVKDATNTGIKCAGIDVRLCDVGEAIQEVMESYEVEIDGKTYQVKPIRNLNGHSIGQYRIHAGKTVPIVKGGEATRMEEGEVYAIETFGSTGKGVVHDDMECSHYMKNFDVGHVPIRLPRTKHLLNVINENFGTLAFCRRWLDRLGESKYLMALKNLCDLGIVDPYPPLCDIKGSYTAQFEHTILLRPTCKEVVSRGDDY

As usually defined, the IC50 is the concentration that gives 50% inhibition. As for `NC(=O)NCc1cccc(Oc2c[nH]nc2-c2ccc(F)cc2)c1` [Example 1, [3-[[3-(4-Fluorophenyl)-1H-pyrazol-4-yl]oxy]phenyl]methylurea], the IC50 in assay [1] was 11 nM; in assay [2] it was 36 nM; in assay [3], over 30000 nM. Besides, the “weight loss compared to the vehicle group” value is “about 6%” in assay [4] (day 7), about 10% in assay [4] (day 14) and about 14% in assay [4] (day 21).
